Assay results from patent publication US20260242362A1, “PREPARATION OF 3,4,5-TRISUBSTITUTED TRIAZOLES AND METHODS OF USING THE SAME” (University of Florida Research Foundation, Incorporated, priority 2023, published 2026).
Like-named read-outs stand apart in the source and are kept apart here.

Tests used:
kappa opioid receptor [1] = biological target: T1, kappa opioid receptor (Homo sapiens, UniProt P41145); assay: PathHunter DiscoverX β-arrestin2 recruitment (enzyme fragment complementation) assay; assay type: cell-based; conditions: for EC50: 3 parameter nonlinear regression, nc = did not converge; for β-arrestin2 Emax (% U60): relative to U69,593 = 100% Emax, ~ did not plateau at 100%; for β-arrestin2 maximum stimulation observed at 10 μM (starred Emax cells / % max at 10 uM): * compounds that did not reach plateau
Target sequence in this assay (P41145 whole entry, the tested form may be a part): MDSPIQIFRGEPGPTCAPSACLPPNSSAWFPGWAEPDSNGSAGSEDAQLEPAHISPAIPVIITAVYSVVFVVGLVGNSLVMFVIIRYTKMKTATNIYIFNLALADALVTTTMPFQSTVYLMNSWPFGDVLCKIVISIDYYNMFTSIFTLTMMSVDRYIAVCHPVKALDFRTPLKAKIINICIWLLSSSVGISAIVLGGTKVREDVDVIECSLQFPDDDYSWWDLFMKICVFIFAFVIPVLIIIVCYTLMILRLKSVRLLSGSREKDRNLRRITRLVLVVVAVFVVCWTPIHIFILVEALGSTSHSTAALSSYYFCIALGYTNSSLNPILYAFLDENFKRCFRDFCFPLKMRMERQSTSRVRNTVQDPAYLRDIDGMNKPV
Target sequence in this assay (P32121 whole entry partner, the tested form may be a part): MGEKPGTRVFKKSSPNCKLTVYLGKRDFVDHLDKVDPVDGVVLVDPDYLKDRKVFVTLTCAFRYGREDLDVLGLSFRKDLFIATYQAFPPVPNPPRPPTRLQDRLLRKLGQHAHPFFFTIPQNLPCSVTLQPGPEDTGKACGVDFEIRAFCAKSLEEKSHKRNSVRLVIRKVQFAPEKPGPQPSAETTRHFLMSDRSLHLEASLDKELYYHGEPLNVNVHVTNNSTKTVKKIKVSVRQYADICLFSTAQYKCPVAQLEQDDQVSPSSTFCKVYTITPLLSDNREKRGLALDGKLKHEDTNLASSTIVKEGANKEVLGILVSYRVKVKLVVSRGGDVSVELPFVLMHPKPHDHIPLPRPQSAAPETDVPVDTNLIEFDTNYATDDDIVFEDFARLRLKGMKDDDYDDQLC

[2] = mouse, microsomes
Method: (§2) Microsomal stability was determined using mouse hepatic microsomes and LC/MS detections over time (Zhou et al., 2013, 22).

kappa opioid receptor [3] = biological target: T1, kappa opioid receptor; assay: GTPγS binding assay (G-protein activation); assay type: biochemical; conditions: for EC50: 3 parameter nonlinear regression, nc = did not converge; for GTPγS Emax (% U60): relative to U69,593 = 100% Emax
Target sequence in this assay (P41145 whole entry, the tested form may be a part): as the sequence (P41145 whole entry, the tested form may be a part) above

kappa opioid receptor [4] = biological target: T1, kappa opioid receptor; assay: Bias analysis by operational model, G protein vs βarrestin2, U69,593 as reference agonist; conditions: U69,593 reference agonist; global parameter fitting
Target sequence in this assay (P41145 whole entry, the tested form may be a part): as above

[5] = Microsomal stability, LC/MS detection over time; conditions: mouse hepatic microsomes
Method: as §2

adult male C57BL6/J mice [6] = conditions: mouse, in vivo
δ-opioid receptor = biological target: T2, δ-opioid receptor (Homo sapiens, UniProt P41143); assay: Radioligand binding displacement (Psychoactive Drug Screening Program); conditions: initial profiling
T2 construct: Psychoactive Drug Screening Program (UNC-CH)
Text: (§1) In some embodiments, the compounds disclosed herein are selective KOR binding ligands. As used herein, the term “selective binding ligands” refers to compounds, which display an increased selectivity for binding a particular KOR when compared to inhibiting other opioid receptors (such as μ- and δ-opioid receptors).

μ-opioid receptor = biological target: T3, μ-opioid receptor (Homo sapiens, UniProt P35372); assay: as above; conditions: initial profiling
T3 construct: Psychoactive Drug Screening Program (UNC-CH)
Text: as §1

adult male C57BL6/J mice [7] = assay: Open field test box mouse model for sedation; conditions: 60 minutes

T3 sequence (P35372 whole entry): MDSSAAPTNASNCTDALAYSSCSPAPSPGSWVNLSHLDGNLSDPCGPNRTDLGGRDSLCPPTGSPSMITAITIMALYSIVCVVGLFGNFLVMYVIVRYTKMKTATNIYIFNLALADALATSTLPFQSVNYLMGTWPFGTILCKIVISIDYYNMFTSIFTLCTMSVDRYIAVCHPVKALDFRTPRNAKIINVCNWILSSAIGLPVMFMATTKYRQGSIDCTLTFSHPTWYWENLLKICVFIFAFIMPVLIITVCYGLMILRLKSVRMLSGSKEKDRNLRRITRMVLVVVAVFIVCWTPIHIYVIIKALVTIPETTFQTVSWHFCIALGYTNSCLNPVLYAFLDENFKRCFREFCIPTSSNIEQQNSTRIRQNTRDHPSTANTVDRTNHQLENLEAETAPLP
T2 sequence (P41143 whole entry): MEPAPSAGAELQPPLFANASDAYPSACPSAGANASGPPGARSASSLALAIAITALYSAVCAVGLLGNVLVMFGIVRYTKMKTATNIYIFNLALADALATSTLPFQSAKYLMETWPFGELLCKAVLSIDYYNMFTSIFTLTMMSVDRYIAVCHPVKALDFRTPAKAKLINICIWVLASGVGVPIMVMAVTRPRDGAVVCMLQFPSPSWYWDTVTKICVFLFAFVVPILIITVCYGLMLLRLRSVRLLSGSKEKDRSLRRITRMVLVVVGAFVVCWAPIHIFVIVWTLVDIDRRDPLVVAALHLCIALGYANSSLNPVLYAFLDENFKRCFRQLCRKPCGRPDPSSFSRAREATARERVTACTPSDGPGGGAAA

SMILES	EC50 (kappa opioid receptor [1]; read-out: β-arrestin2 EC50) [nM]	β-arrestin2 Emax (% U60) (kappa opioid receptor [1])	Microsomal Stability [2] [min]	EC50 (kappa opioid receptor [3]) [nM]	GTPγS Emax (% U60) (kappa opioid receptor [3])	β-arrestin2 maximum stimulation observed at 10 μM (starred Emax cells / % max at 10 uM) (kappa opioid receptor [1])	further results
Cc1ccc(/C=C/c2nnc(-c3ccccn3)n2Cc2ccco2)cc1C(F)(F)F (single isomer, unassigned) [Compound 40]	7200	54	18	1600	97	–	KOR potency / activity in words (SAR commentary) (kappa opioid receptor [3]): loss in potency; Bias (bias factor 10^ΔΔ(logτ/KA) Gprotein-Barr2) (kappa opioid receptor [4]): 5
Cc1ccc(/C=C/c2nnc(-c3ccccn3)n2Cc2ccco2)cc1C(F)(F)F [42 (UNC9008)]	51300	119	–	1600	96.5	–	Bias (bias factor 10^ΔΔ(logτ/KA) Gprotein-Barr2) (kappa opioid receptor [4]): 3.5
Cc1ccc(/C=C/c2nnc(-c3ccccn3)n2Cc2cccs2)cc1C(F)(F)F [49 (UNC9009)]	20600	–	–	667	83.2	36.4 (% max at 10 uM) % U60	Bias (bias factor 10^ΔΔ(logτ/KA) Gprotein-Barr2) (kappa opioid receptor [4]): 6.7
Cc1ccc(CCc2nnc(-c3ccccn3)n2Cc2ccco2)cc1C(F)(F)F [Compound 2]	–	119	–	–	90	–	EC50 (kappa opioid receptor [1]; β-arrestin2 EC50 (nM)): 788 nM; Microsomal Stability ([5]; Table 1, head prints no unit (b175 gives min)): 0.9; Microsomal Stability [5]: 0.9 min
Cc1ccc(CCc2nnc(-c3ccccn3)n2Cc2cccs2)cc1C(F)(F)F [Compound 5]	624	110	–	–	–	–	sedation in open field test activity monitor (adult male C57BL6/J mice [6]): does not induce sedation; displacement of radioligand binding to δ-opioid receptor (δ-opioid receptor): less than 50%; displacement of radioligand binding to μ-opioid receptor (μ-opioid receptor): less than 50%
Clc1ccc(CCc2nnc(-c3ccccn3)n2Cc2cccs2)cc1Cl [Compound 32]	–	–	–	–	–	–	Microsomal Stability [5]: 1.5 min
Clc1ccc(CCc2nnc(-c3ccccn3)n2Cc2cccs2)c(Cl)c1 [Compound 33]	–	154	–	–	91	–	Microsomal Stability [5]: 2.1 min
Cc1ccc(/C=C/c2nnc(-c3ccccn3)n2Cc2nccs2)cc1C(F)(F)F [Compound 48]	–	–	19.1	767	82	51* % U60	–
Cc1ccc(/C=C/c2nnc(-c3nccn3C)n2Cc2ccco2)cc1C(F)(F)F [Compound 49]	–	–	14.1	–	76	17* % U60	–
Cc1ccc(/C=C/c2nnc(-c3nccn3C)n2Cc2cccs2)cc1C(F)(F)F [Compound 50]	55800	–	12.2	1010	77	38* % U60	–
Cc1ccc(/C=C/c2nnc(-c3nccn3C)n2Cc2nccs2)cc1C(F)(F)F [Compound 51]	1680	34	14.5	309	–	–	–
Clc1ccc(CCc2nnc(-c3ccccn3)n2Cc2ccco2)cc1 [Compound 52]	4530	191	3.3	99	84	–	–
Cn1ccnc1-c1nnc(CCc2ccc(Cl)cc2)n1Cc1nccs1 [Compound 53]	5020	81	2.4	2250	94	–	–
Cc1ccc(CCc2nnc(-c3nccn3C)n2Cc2ccco2)cc1C(F)(F)F [Compound 54]	788	112	1.6	69	92	–	Emax (weak partial agonist) (kappa opioid receptor [1]; text b193, assay not named): about 26%
Cc1ccc(CCc2nnc(-c3nccn3C)n2Cc2cccs2)cc1C(F)(F)F [Compound 56]	888	98	–	95	105	–	Bias (bias factor 10^ΔΔ(logτ/KA) Gprotein-Barr2) (kappa opioid receptor [4]): 12
Cc1ccc(CN(Cc2ccco2)C(=O)c2ccccn2)cc1C(F)(F)F [Compound 57]	3130	87	1.8	368	92	–	–
Cc1ccc(CCN(CCc2ccco2)C(=O)c2ccccn2)cc1C(F)(F)F [Compound 61]	> 10000	–	0.9	1540	78	41* % U60	–
Cc1ccc(CCCN(CCCc2ccco2)C(=O)c2ccccn2)cc1C(F)(F)F [Compound 64]	> 10000	–	1.0	3060	88	26* % U60	–
Cc1ccc(CSc2nnc(-c3ccccn3)n2Cc2ccco2)cc1C(F)(F)F [Triazole 1.1]	–	–	–	–	–	–	Microsomal Stability [5]: 1.1 min; sedation in open field test activity monitor (adult male C57BL6/J mice [7]): does not induce sedation; time spent in the center of the open field box (adult male C57BL6/J mice [7]): did not effect center time
